33 compounds from patent US8785452B2, “Anti-infective compounds” (priority 2008, dated 2014) can be followed below.

Molecules are shown by their SMILES. Where two headings read alike, the source gives them in different places.

In series [1] the test system is M. tuberculosis H37Rv. The series is described as follows: Conventional CFU determination in infected macrophages. To be noted: human and mouse cells; seven days after infection; 232 at 20 μM. Type of series: cell-based, Mycobacterium tuberculosis.
Series [2] relates to M. tuberculosis H37Rv-GFP. The experiment in a line: microbe, parasite or virus in culture. Format: cell-based, Mycobacterium tuberculosis. The conditions noted are these: for inhibition at 20 µM: Mycobacterium tuberculosis, H37RV, Macrophage.
Series [3] has as its system Raw264.7 cells. The experiment in a line: Cell number (CellNb) from image analysis of the phenotypic cell-based assay.
For series [4], the system named is Raw264.7 cells. The conditions noted are these: mouse.
Setting [5] is: confirmation, 20 uM, read-out: QIM Confirm % Inhibition 20 uM.
[6] abbreviates: primary screen, 20 μM, read-out: Primary QIM % Inhibition.

Turning to `Cc1cccn2c(=O)c(CO)c(Nc3cccc(Cl)c3)nc12` [compound 232, 2-(3-Chlorophenylamino)-3-(hydroxymethyl)-9-methyl-4H-pyrido[1,2-a]pyrimidin-4-one], the “decrease in the number of CFUs” value in series [1] is reported as “ten-fold decrease”. Also, the “bacterial load and host cell abundance versus DMSO control” value in series [2] was “harbored fewer bacteria compared to DMSO control and were more abundant”.
Usually melting point stands for the temperature, or range, at which the solid turns liquid. For `CS(=O)(=O)O[C@H]1CCN(C(=O)c2cc([N+](=O)[O-])cc([N+](=O)[O-])c2)C1`, the melting point fell in the range of 138 to 140 °C.
On to `CNC(=O)c1c(Nc2ccc(F)c(Cl)c2)nc2c(OC)cccn2c1=O`, for which the melting point is 218 °C (dec.).
In general, inhibition refers to the relative decrease from the control value, in per cent. Regarding `O=[N+]([O-])c1ccc(O)c(C2NN=C(c3ccccc3)S2)c1` (stereo not drawn) [IPK 000 114 01], the “Primary QIM CellNb” value in series [3] (primary screen, 20 μM) is given as 163.5; in series [4] (5 days, 20 μM), 7.3. Also, the inhibition at 20 µM in series [2] (setting [5]) is -1.5%; in series [2] (setting [6]), 3.2%.
For the compound `NNC(=O)c1ccc(COc2ccccc2Br)o1` [IPK 000 124 64], the “Primary QIM CellNb” value in series [3] (primary screen, 20 μM) worked out at 501.5; in series [4] (5 days, 20 μM), 54.7. For the same compound, the values for the inhibition at 20 µM in series [2] (setting [5]) and in series [2] (setting [6]) were 78.2% and 79.9%, respectively.
As to `CCOC(=O)CSc1nc(N)c(C(=O)Nc2ccc(N(C)C)cc2)s1` [IPK 000 105 70], the “Primary QIM CellNb” value came out at 315.5 in series [3] (primary screen, 20 μM) and 4.7 in series [4] (5 days, 20 μM). Further, the inhibition at 20 µM in series [2] (setting [5]) was 84.6%; in series [2] (setting [6]), 61.2%.
The like results for `Cc1cc(/C=C(/C#N)C(=O)Nc2cccc(Br)c2)c(C)n1-c1ccc(C(=O)O)cc1` [IPK 000 113 05] were, in that order, 162.0, 31.6, 56.4% and 55.4%.
Regarding `N=C1S/C(=C/c2ccc([N+](=O)[O-])cc2)C(=O)N1c1nccs1` [IPK 000 094 38], the “Primary QIM CellNb” value is reported as 126.3 in series [3] (primary screen, 20 μM) and 13.6 in series [4] (5 days, 20 μM). In addition, the results for the inhibition at 20 µM in series [2] (setting [5]) and in series [2] (setting [6]) were 6% and 46%, respectively.
The corresponding values for `CCOc1ccccc1/C=N/NC(=O)c1ccncc1` [IPK 000 043 27] are 125.8, 105.2, 102% and 47.6%.
Take `Cc1nc2c(o1)NC(N)=C(C#N)C2c1c[nH]nc1C` (stereo not drawn) [IPK 000 065 03]: the “Primary QIM CellNb” value in series [3] (primary screen, 20 μM) came out at 197.8; in series [4] (5 days, 20 μM), 1.1. Further, the values for the inhibition at 20 µM in series [2] (setting [5]) and in series [2] (setting [6]) were 73.2% and 68.2%, respectively.
Consider `COc1cc(Cl)cc(/C=N/NC(=O)c2ccccc2O)c1O` [IPK 000 104 20], for which the “Primary QIM CellNb” value in series [3] (primary screen, 20 μM) is recorded as 29.5; in series [4] (5 days, 20 μM) it was −2.9. Moreover, the figures for the inhibition at 20 µM in series [2] (setting [5]) and in series [2] (setting [6]) were 34.6% and 65.2%, respectively.
The like results for `O=C(N/N=C/c1cc([N+](=O)[O-])ccc1O)c1ccncc1` [IPK 000 042 98] were, in that order, 350.0, 95.3, 105% and 102%.
For the compound `COc1ccc(/C=N/NC(=O)c2ccncc2)c(OC)c1` [IPK 000 043 00], the “Primary QIM CellNb” value in series [3] (primary screen, 20 μM) came out at 333.3; in series [4] (5 days, 20 μM), 101.4. Also, the inhibition at 20 µM in series [2] (setting [5]) stood at 102%; in series [2] (setting [6]) it was 104%.
The like results for `Cc1cccc(NC(=O)c2c(NC(=O)c3ccccc3Cl)sc3c2CCC3)c1` [IPK 000 073 70] were, in that order, 234.0, 56.7, 103% and 88.6%.
The corresponding values for `Oc1ccc(Br)cc1/C=N/c1ccccc1O` [IPK 000 043 83] are 89.0, 17.1, 31.3% and -80.9%.
Take `CCC(C)c1ccc(NC(=O)c2ccc(Cl)c([N+](=O)[O-])c2)cc1` (stereo not drawn) [IPK 000 048 71]: the “Primary QIM CellNb” value is 56.5 in series [3] (primary screen, 20 μM) and 22.6 in series [4] (5 days, 20 μM). For the same compound, the values for the inhibition at 20 µM in series [2] (setting [5]) and in series [2] (setting [6]) were 70% and 62.1%, respectively.
For the compound `Cc1ccccc1NC(=O)c1c(NC(=O)c2ccccc2Cl)sc2c1CCC2` [IPK 000 073 71], the “Primary QIM CellNb” value in series [3] (primary screen, 20 μM) is listed as 218.3; in series [4] (5 days, 20 μM), 29.8. Moreover, the figures for the inhibition at 20 µM in series [2] (setting [5]) and in series [2] (setting [6]) were 65.2% and 87.5%, respectively. Also, the “QIM Confirm CellNb 0.2 uM” value in series [4] (5 days, 0.2 uM) was 45.3.
Regarding `Cc1ccc(NC(=O)c2c(NC(=O)C(F)(F)F)sc3c2CCC3)c(C)c1` [IPK 000 077 22], the “Primary QIM CellNb” value is 84.5 in series [3] (primary screen, 20 μM) and 33.3 in series [4] (5 days, 20 μM). Also, the inhibition at 20 µM is 46.6% in series [2] (setting [5]) and -33% in series [2] (setting [6]).
The like results for `COc1ccc(/C(C)=N/NC(N)=S)c(OC)c1` [IPK 000 080 24] were, in that order, 188.8, 67.6, 23% and 0.2%.
Consider `CCOC(=O)C1=C(C)NC2=C(C(=O)CC(c3ccccc3)C2)C1c1cccc(O)c1` (stereo not drawn) [IPK 000 083 89], for which the “Primary QIM CellNb” value is listed as 38.8 in series [3] (primary screen, 20 μM) and 19.5 in series [4] (5 days, 20 μM). In addition, the inhibition at 20 µM came to 59.1% in series [2] (setting [5]) and 73.5% in series [2] (setting [6]).
As for `O=C(N/N=C/c1ccc(Br)cc1)c1ccncc1` [IPK 000 041 51], the “Primary QIM CellNb” value in series [3] (primary screen, 20 μM) came out at 351.3; in series [4] (5 days, 20 μM) it was 102.9. The values for the inhibition at 20 µM in series [2] (setting [5]) and in series [2] (setting [6]) were 94% and 89%, respectively.
For `O=C(N/N=C/c1ccccc1[N+](=O)[O-])c1ccncc1` [IPK 000 043 35], the “QIM Confirm CellNb 20 uM” value in series [3] (confirmation, 20 uM) was determined as 461.5. Also, the “Primary QIM CellNb” value in series [3] (primary screen, 20 μM) is recorded as 245.5; in series [4] (5 days, 20 μM), 94.4. For the same compound, the inhibition at 20 µM in series [2] (setting [5]) was 101%; in series [2] (setting [6]), 104%.
`Cc1sc(/N=C/c2ccc([N+](=O)[O-])s2)c(C(N)=O)c1C` [IPK 000 110 17]: the “Primary QIM CellNb” value in series [3] (primary screen, 20 μM) was 155.5; in series [4] (5 days, 20 μM), 12.9. The results for the inhibition at 20 µM in series [2] (setting [5]) and in series [2] (setting [6]) were 71.6% and 55.6%, respectively.
Turning to `Cc1ccc(NC(=O)c2c(NC(=O)c3ccccc3Cl)sc3c2CCC3)cc1` [IPK 000 073 69], the “Primary QIM CellNb” value in series [3] (primary screen, 20 μM) was determined as 246.5; in series [4] (5 days, 20 μM), 14.0. The inhibition at 20 µM in series [2] (setting [5]) was 32.3%; in series [2] (setting [6]) it was 87%.
`O=C(N/N=C/c1cccc(Br)c1)c1ccncc1` [IPK 000 043 09]: the “Primary QIM CellNb” value was determined as 258.5 in series [3] (primary screen, 20 μM) and 100.5 in series [4] (5 days, 20 μM). The values for the inhibition at 20 µM in series [2] (setting [5]) and in series [2] (setting [6]) were 102% and 95.8%, respectively.
The corresponding values for `CCc1ccc(/C=C(/C#N)C(=O)OC(C)C)s1` [IPK 000 107 90] are 494.3, 52.8, 89.6% and 79.3%.
For `CCOc1ccc(/C(C)=N/NC(N)=S)cc1` [IPK 000 080 37], the “Primary QIM CellNb” value in series [3] came out at 110.8; in series [4], 62.1. Also, the values for the inhibition at 20 µM in series [2] (read-out: Primary QIM % Inhibition) and in series [2] (read-out: QIM Confirm % Inhibition 20 uM) were -44% and 36%, respectively.
`O=[N+]([O-])c1cc(Br)cc(/C=N/c2ccccc2O)c1O` [IPK 000 080 69]: the “Primary QIM CellNb” value in series [3] (primary screen, 20 μM) is on record as 123.5; in series [4] (5 days, 20 μM) it was 37.6. Further, the inhibition at 20 µM in series [2] (setting [5]) was 16.5%; in series [2] (setting [6]), -42.5%.
With `COc1cccn2c(=O)c(CO)c(Nc3ccc(F)c(F)c3)nc12`, the melting point was 231 °C (dec.).
For the compound `COc1ccc(/C=N/NC(=O)c2ccncc2)cc1OC` [IPK 000 042 95], the “Primary QIM CellNb” value came out at 143.5 in series [3] (primary screen, 20 μM) and 106.0 in series [4] (5 days, 20 μM). Also, the inhibition at 20 µM came out at 98.8% in series [2] (setting [5]) and 64.7% in series [2] (setting [6]).
The like results for `CC(/C=N/NC(=O)c1ccccn1)=C\c1ccco1` [IPK 000 110 79] were, in that order, 462.3, 22.8, 83.4% and 72.9%.
The like results for `O=C(Nc1sc2c(c1C(=O)Nc1ccccc1)CCC2)c1ccccc1Br` [IPK 000 073 29] were, in that order, 230.5, 55.1, 86.6% and 78.6%.
The corresponding values for `O=C(N/N=C/c1cc2c(cc1[N+](=O)[O-])OCO2)c1ccncc1` [IPK 000 058 30] are 315.8, 98.3, 70.8% and 95.5%.
